Counter-ions that a name gives are not always drawn.

For the assay, the target named is T1, recombinant guanylate cyclase reporter cell line (Rattus norvegicus, UniProt P19686+P20595).
T1 construct: expressed in transfected cells
T1 sequence (P19686 1-690): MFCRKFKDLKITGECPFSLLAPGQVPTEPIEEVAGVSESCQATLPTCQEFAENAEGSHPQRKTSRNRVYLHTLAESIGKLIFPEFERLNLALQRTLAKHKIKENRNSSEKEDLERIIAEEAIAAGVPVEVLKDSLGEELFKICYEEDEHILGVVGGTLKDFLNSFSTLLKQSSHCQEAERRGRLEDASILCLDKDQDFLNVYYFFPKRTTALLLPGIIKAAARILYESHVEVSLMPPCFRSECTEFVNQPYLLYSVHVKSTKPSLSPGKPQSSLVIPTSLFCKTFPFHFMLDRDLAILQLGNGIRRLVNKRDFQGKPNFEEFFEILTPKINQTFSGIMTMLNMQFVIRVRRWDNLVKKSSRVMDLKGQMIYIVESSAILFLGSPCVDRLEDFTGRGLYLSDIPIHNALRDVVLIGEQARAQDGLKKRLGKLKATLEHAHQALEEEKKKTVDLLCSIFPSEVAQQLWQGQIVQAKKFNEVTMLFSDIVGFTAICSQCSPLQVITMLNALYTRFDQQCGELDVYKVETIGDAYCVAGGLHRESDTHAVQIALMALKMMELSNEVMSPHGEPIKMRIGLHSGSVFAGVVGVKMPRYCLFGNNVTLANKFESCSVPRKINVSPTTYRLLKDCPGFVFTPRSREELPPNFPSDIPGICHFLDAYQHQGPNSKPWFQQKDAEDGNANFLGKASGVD
T1 sequence (P20595 1-619): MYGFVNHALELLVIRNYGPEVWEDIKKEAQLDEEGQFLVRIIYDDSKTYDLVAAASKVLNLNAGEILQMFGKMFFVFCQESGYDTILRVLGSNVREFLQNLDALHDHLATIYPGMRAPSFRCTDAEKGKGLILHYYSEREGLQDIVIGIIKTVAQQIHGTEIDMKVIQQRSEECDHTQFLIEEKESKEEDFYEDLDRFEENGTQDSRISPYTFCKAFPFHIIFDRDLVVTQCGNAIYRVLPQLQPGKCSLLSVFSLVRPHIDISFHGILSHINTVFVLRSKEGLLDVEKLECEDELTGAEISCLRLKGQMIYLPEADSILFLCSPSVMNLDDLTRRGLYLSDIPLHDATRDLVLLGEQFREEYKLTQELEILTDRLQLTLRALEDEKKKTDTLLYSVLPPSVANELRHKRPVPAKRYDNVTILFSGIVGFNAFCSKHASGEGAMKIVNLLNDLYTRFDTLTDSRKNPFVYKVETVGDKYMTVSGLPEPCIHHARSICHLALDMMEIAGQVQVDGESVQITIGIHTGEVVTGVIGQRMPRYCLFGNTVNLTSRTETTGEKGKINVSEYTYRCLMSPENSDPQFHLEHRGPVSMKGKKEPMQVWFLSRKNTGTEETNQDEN
Put plainly: Effect on a recombinant guanylate cyclase reporter cell line. It counts as cell-based. The note with it: MEC = minimum effective concentration; in some cases mean values for individual determinations. As to the method: B-2. Effect on a Recombinant Guanylate Cyclase Reporter Cell Line
The cellular action of the compounds of the invention is determined using a recombinant guanylate cyclase reporter cell line, as described in F. Wunder et al., Anal. Biochem. 339, 104-112 (2005).
Representative MEC values (MEC=minimum effective concentration) for the compounds of the invention are shown in the table below (in some cases as mean values for individual determinations): […]

With `CCCC[C@H](CO)NC(=O)c1c(C)nc2c(OCc3c(F)cccc3F)nc(C)cn12` [Example 3, 8-[(2,6-Difluorobenzyl)oxy]-N-[(2R)-1-hydroxyhexan-2-yl]-2,6-dimethylimidazo[1,2-a]pyrazine-3-carboxamide], the MEC stood at 3 µM. Regarding `Cc1cn2c(C(=O)NC[C@H]3CC[C@H](C(=O)O)CC3)c(C)nc2c(OCc2c(F)cccc2F)n1.Cl` [Example 11, trans-4-{[({8-[(2,6-Difluorobenzyl)oxy]-2,6-dimethylimidazo[1,2-a]pyrazin-3-yl}carbonyl)amino]methyl}cyclohexanecarboxylic acid hydrochloride], the MEC turned out to be 3 µM. For `Cc1cn2c(C(=O)N[C@H]3CCNC3=O)c(C)nc2c(OCc2c(F)cccc2F)n1` [Example 9, 8-[(2,6-Difluorobenzyl)oxy]-2,6-dimethyl-N-[(3S)-2-oxopyrrolidin-3-yl]imidazo[1,2-a]pyrazine-3-carboxamide], the MEC worked out at 3 µM. To `Cc1cn2c(C(=O)Nc3cnn4ccccc34)c(C)nc2c(OCc2c(F)cccc2F)n1` [Example 30, 8-[(2,6-difluorobenzyl)oxy]-2,6-dimethyl-N-(pyrazolo[1,5-a]pyridin-3-yl)imidazo[1,2-a]pyrazine-3-carboxamide] belongs 3 µM.

Consider `CCCCC(NC(=O)c1c(C)nc2c(OCc3c(F)cccc3F)nc(C)cn12)C(C)(C)O` (single isomer, unassigned; ent-8) [Example 7, ent-8[(2,6-Difluorobenzyl)oxy]-N-(2-hydroxy-2-methylheptan-3-yl)-2,6-dimethylimidazo[1,2-a]pyrazine-3-carboxamide], for which the MEC was determined as 0.3 µM.

In the case of `CCCC(C)(N)CNC(=O)c1c(C)nc2c(OCc3c(F)cccc3F)nc(C)cn12` (single isomer, unassigned; enantiomer b) [Example 39, ent-N-(2-Amino-2-methylpentyl)-8-[(2,6-difluorobenzyl)oxy]-2,6-dimethylimidazo[1,2-a]pyrazine-3-carboxamide (enantiomer B)], the MEC came out at 0.2 µM. Regarding `Cc1cn2c(C(=O)NNC(=O)CN(C)C)c(C)nc2c(OCc2c(F)cccc2F)n1` [Example 53, 8-[(2,6-difluorobenzyl)oxy]-N′-[(dimethylamino)acetyl]-2,6-dimethylimidazo[1,2-a]pyrazine-3-carbohydrazide], the MEC stood at 3.0 µM. To `Cc1cn2c(C(=O)NC(CCCC(F)(F)F)C(C)(C)O)c(C)nc2c(OCc2c(F)cccc2F)n1` (single isomer, unassigned; ent-8) [Example 6, ent-8[(2,6-Difluorobenzyl)oxy]-2,6-dimethyl-N-(7,7,7-trifluoro-2-hydroxy-2-methylheptan-3-yl)imidazo[1,2-a]pyrazine-3-carboxamide] belongs 3 µM.

Turning to `Cc1cn2c(C(=O)NCC3(O)CC3)c(C)nc2c(OCc2c(F)cccc2F)n1` [Example 32, 8-[(2,6-difluorobenzyl)oxy]-N-[(1-hydroxycyclopropyl)methyl]-2,6-dimethylimidazo[1,2-a]pyrazine-3-carboxamide], the MEC was found to be 1 µM.

In the case of `Cc1cn2c(C(=O)NCCN3CCOCC3)c(C)nc2c(OCc2c(F)cccc2F)n1` [Example 22, 8-[(2,6-difluorobenzyl)oxy]-2,6-dimethyl-N-[2-(morpholin-4-yl)ethyl]imidazo[1,2-a]pyrazine-3-carboxamide], the MEC is 3 µM.

Consider `Cc1cn2c(C(=O)NNC3CCCC3O)c(C)nc2c(OCc2c(F)cccc2F)n1` (mixture of isomers) [Example 54, 8-[(2,6-difluorobenzyl)oxy]-N′-(2-hydroxycyclopentyl)-2,6-dimethylimidazo[1,2-a]pyrazine-3-carbohydrazide trifluoroacetate (mixture of stereoisomers)], for which the MEC worked out at 1.0 µM. To `CC[C@](C)(N)CNC(=O)c1c(C)nc2c(OCc3c(F)cccc3F)nc(C)cn12` [Example 1, ent-N-[(2S)-2-Amino-2-methylbutyl]-8-[(2,6-difluorobenzyl)oxy]-2,6-dimethylimidazo[1,2-a]pyrazine-3-carboxamide] belongs 0.77 µM.

Turning to `CCC(CO)(CO)NC(=O)c1c(C)nc2c(OCc3c(F)cccc3F)nc(C)cn12` [Example 35, 8-[(2,6-difluorobenzyl)oxy]-N-[1-hydroxy-2-(hydroxymethyl)butan-2-yl]-2,6-dimethylimidazo[1,2-a]pyrazine-3-carboxamide], the MEC was determined as 3 µM. In the case of `Cc1cn2c(C(=O)Nc3ccnc4ccc(F)cc34)c(C)nc2c(OCc2c(F)cccc2F)n1` [Example 10, 8-[(2,6-Difluorobenzyl)oxy]-N-(6-fluoroquinolin-4-yl)-2,6-dimethylimidazo[1,2-a]pyrazine-3-carboxamide], the MEC is 0.3 µM. For the molecule `Cc1cn2c(C(=O)NCC(C)(N)CC(F)F)c(C)nc2c(OCc2c(F)cccc2F)n1` (single isomer, unassigned; enantiomer b) [Example 42, ent-N-(2-Amino-4,4-difluoro-2-methylbutyl)-8-[(2,6-difluorobenzyl)oxy]-2,6-dimethylimidazo[1,2-a]pyrazine-3-carboxamide (enantiomer B)], the MEC came out at 0.3 µM.

`CCC(N)(CC)CNC(=O)c1c(C)nc2c(OCc3c(F)cccc3F)nc(C)cn12` [Example 15, N-(2-amino-2-ethylbutyl)-8-[(2,6-difluorobenzyl)oxy]-2,6-dimethylimidazo[1,2-a]pyrazine-3-carboxamide]: the MEC stood at 1 µM. Turning to `Cc1cn2c(C(=O)NC3CC(C)(C)NC(C)(C)C3)c(C)nc2c(OCc2c(F)cccc2F)n1` [Example 16, 8-[(2,6-difluorobenzyl)oxy]-2,6-dimethyl-N-(2,2,6,6-tetramethylpiperidin-4-yl)imidazo[1,2-a]pyrazine-3-carboxamide], the MEC turned out to be 3 µM.

`Cc1cn2c(C(=O)NCC(C)(N)CC(F)F)c(C)nc2c(OCc2c(F)cccc2F)n1` (single isomer, unassigned; enantiomer a) [Example 41, ent-N-(2-Amino-4,4-difluoro-2-methylbutyl)-8-[(2,6-difluorobenzyl)oxy]-2,6-dimethylimidazo[1,2-a]pyrazine-3-carboxamide (enantiomer A)]: the MEC turned out to be 0.65 µM. As for `Cc1cn2c(C(=O)NC3(c4ccc(F)c(F)c4)CC3)c(C)nc2c(OCc2c(F)cccc2F)n1` [Example 4, 8-[(2,6-Difluorobenzyl)oxy]-N-[1-(3,4-difluorophenyl)cyclopropyl]-2,6-dimethylimidazo[1,2-a]pyrazine-3-carboxamide], the MEC amounted to 1 µM. For `CCCC[C@H](C)NC(=O)c1c(C)nc2c(OCc3c(F)cccc3F)nc(C)cn12` [Example 2, 8-[(2,6-Difluorobenzyl)oxy]-N-[(2S)-hexan-2-yl]-2,6-dimethylimidazo[1,2-a]pyrazine-3-carboxamide], the MEC stood at 1 µM. The result for `Cc1cn2c(C(=O)NCc3ccccc3-c3cccnc3)c(C)nc2c(OCc2c(F)cccc2F)n1` [Example 21, 8-[(2,6-difluorobenzyl)oxy]-2,6-dimethyl-N-[2-(pyridin-3-yl)benzyl]imidazo[1,2-a]pyrazine-3-carboxamide] reads 3 µM. Consider `COC(=O)[C@H]1CC[C@H](CNC(=O)c2c(C)nc3c(OCc4c(F)cccc4F)nc(C)cn23)CC1` [Example 8, Methyl trans-4-{[({8-[(2,6-difluorobenzyl)oxy]-2,6-dimethylimidazoyl}carbonyl)amino]methyl}cyclohexanecarboxylate], for which the MEC is 1 µM. To `Cc1cn2c(C(=O)NC(C#N)c3ccc(Cl)cc3)c(C)nc2c(OCc2c(F)cccc2F)n1` (racemic) [Example 46, rac-N-[(4-chlorophenyl)(cyano)methyl]-8-[(2,6-difluorobenzyl)oxy]-2,6-dimethylimidazo[1,2-a]pyrazine-3-carboxamide] belongs 10 µM.
